Here are results for 1 compound from BindingDB's records for patent US20240308985 (Psy Therapeutics, 2024).

Molecules are shown by their SMILES. Bounds are passed on as bounds.

The target in the test is T1, Fatty-acid amide hydrolase 1 (Homo sapiens, UniProt O00519).
T1 sequence (O00519 whole entry): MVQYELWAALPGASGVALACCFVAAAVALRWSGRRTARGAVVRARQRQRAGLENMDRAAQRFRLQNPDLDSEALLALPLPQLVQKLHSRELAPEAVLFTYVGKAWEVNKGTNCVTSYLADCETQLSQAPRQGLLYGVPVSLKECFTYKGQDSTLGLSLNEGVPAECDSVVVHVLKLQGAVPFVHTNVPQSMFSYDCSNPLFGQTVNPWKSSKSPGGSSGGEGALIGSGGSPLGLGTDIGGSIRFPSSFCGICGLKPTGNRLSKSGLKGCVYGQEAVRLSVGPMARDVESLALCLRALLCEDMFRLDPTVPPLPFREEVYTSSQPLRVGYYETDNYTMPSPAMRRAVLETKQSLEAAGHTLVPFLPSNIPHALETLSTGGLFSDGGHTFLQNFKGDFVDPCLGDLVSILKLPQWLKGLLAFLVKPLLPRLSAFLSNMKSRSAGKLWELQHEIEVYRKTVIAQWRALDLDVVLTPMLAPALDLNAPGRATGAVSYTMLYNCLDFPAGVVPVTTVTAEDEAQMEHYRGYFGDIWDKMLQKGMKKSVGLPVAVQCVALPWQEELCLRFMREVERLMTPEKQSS
Kind of test: Measuring FAAH Inhibition Potency. As for the experimental part:
MAGL inhibitor compounds were also counter-screened for FAAH inhibition potency using the following assay. Assessment of FAAH inhibition was performed using Fatty Acid Amide Hydrolase Inhibitor Screening Assay Kit (Cayman Item No. 10005196) following manufacture's instruction with some modifications. The kit utilizes human recombinant FAAH and the fluorescent substrate, AMC Arachidonoyl amide (AAMCA). 5 μL of assay buffer (125 mM Tris, pH 9.0, 1 mM EDTA, i.e. ethylenediaminetetraacetic acid) was added to a 384-well black plate (Corning, 3573). Test compounds and control inhibitor JZL-195 (Cayman Chemical, 13668) were tested in 10-concentration IC50 mode with 3-fold serial dilution at a starting concentration of 100 μM and 10 μM, respectively. 300 nL or 30 nL of test compounds were delivered into a 384-well black plate (Corning, 3573) using a Labcyte Echo, followed by addition of 15 μL of FAAH enzyme (Cayman, 700302) in assay buffer. After a 5-minute pre-incubation at room temperature, 10 μL of AAMCA was added in assay buffer to start the reaction. Final concentration of FAAH enzyme is not specified and AAMCA substrate was used at the 20 uM. […] The reaction was allowed to progress for 60 minutes, while the plate was read on an Envision plate reader at an Ex/Em of 350/460 nm with readings every minute. The data was analyzed in Microsoft Excel, using the slope between 30 and 59 minutes. […]

Usually IC50 stands for the concentration needed to halve the response being measured. A low value points to higher potency. With `Cc1cc(C2=CC3(C2)CN(C(=O)c2cc(O)ccc2F)C3)n(-c2ccccc2C)n1` [US20240308985, Compound 120], the half-inhibitory concentration (IC50) was more than 10 µM.
